Experimental data taken from patent US9687493B2, “Use of NK-1 receptor antagonists for treating hypomagnesemia, neurogenic inflammation, and cardiac dysfunction associated with EGFR-blocking drugs” (THE GEORGE WASHINGTON UNIVERSITY, priority 2014, dated 2017).
Where two headings read alike, the source gives them in different places.

Legend:
[1] = patients with colorectal cancer, monoclonal antibodies targeting the EGFR; cited from earlier work
[2] = rat, in vivo
Protocol: Experiments on animals were conducted in accordance with the principles given in the US Department of Health and Human Services Guide for the Care and Use of Laboratory Animals and were approved by The George Washington University Institutional Animal Care and Use Committee. Male Sprague-Dawley rats (125-150 g) were purchased from Hilltop Lab Animals, Inc. (Scottdale, Pa.). After 1 week of quarantine, all age-matched rats were placed on an ad libitum Mg normal diet (25 mmole magnesium oxide/kg food regarded as 100% recommended daily allowance for rodents) obtained from Harlan-Teklad (Madison, Wis.) containing extracted casein as the diet base supplemented with essential vitamins and nutrients; or the same diet supplemented with erlotinib (OSI Pharmaceuticals, LLC, Northbrook, Ill. 60062, USA) to obtain a starting dose of 10 mg/kg/day, Emend® (as aprepitant, Merck & Co., INC. USA) to obtain a starting dose of 2 mg/kg/day, or both agents at these doses. Individually-housed rats were weighed and food consumption recorded daily to obtain actual drug dosage: time-range average erlotinib dose over 9 weeks was 7.07 mg/kg/day, and time-range average Emend dose over 9 weeks was 1.41 mg/kg/day. Rats had free access to distilled-deionized water, and were on a 12 h light/dark cycle for up to 9 weeks. […]

[3] = Plasma magnesium by atomic absorption flame emission spectroscopy; assay type: in vivo, Sprague-Dawley rats; details: 9 week; Emend (starting 2 mg/kg/day) co-treatment with erlotinib
Protocol: Individually-housed rats were weighed and food consumption recorded daily to obtain actual drug dosage: time-range average erlotinib dose over 9 weeks was 7.07 mg/kg/day, and time-range average Emend dose over 9 weeks was 1.41 mg/kg/day.
Magnesium levels in 1:50 or 1:100 diluted, acidified (nitric acid) plasma samples were determined by atomic absorption flame emission spectroscopy (wavelength=285.2 nm) using an AA-6200 Shimadzu spectrophotometer (Columbia, Md.) as described (13). Values obtained from standard curves were mg/dl, and reported as % of control.
Plasma was assessed for magnesium by flame emission atomic absorption spectroscopy (FIG. 2A). Data are the means±SEM of 5-7 animals per group. * p<0.05, **p<0.01 and # p<0.001 compared with the time-matched control group; +p<0.055 versus erlotinib alone. Plasma SP (FIG. 2B) was assessed by a colorimetric ELISA kit.

[4] = test system: neutrophils
Protocol: (§1) At periodic intervals, blood was collected (˜0.5 ml) aseptically from the tail of anaesthetized rats (2% isoflurane, EZ Anesthesia Chamber with nose cone)(13, 14) in sterile microtainer plasma separator tubes containing heparin and the protease inhibitor, aprotinin (Sigma Chemicals, St. Louis Mo.) to yield final blood concentrations of 10.74 units/ml and 0.016 units/ml, respectively. For subsequent samplings, the scab was carefully removed, and the process was repeated. Plasma was obtained after centrifugation (12,000 rpm, 2 min, RT, IDEXX StatSpin VT, Iris International, Inc., Westwood, Mass.). Tail bleed samples were used for assessment of plasma Mg, and substance P levels. Sacrifice blood samples (˜8 ml collected in heparin plus aprotinin containing BD vacutainer SST tubes) were taken from anaesthetized, heparinized (0.3-0.4 ml 358 units/ml heparin in 0.9% NaCl, i.p.) rats from either the vena cava or by cardiac puncture, and were centrifuged (3,500 rpm, 10 min, RT). In addition to the above plasma parameters, sacrifice plasma was also assayed for 8-isoprostane levels, and the whole blood samples were processed for neutrophil isolation and assessment of superoxide anion production.
At sacrifice, whole blood (3 ml) samples were obtained; neutrophils were isolated by a step-gradient centrifugation method (13,−16). Superoxide anion production from neutrophils (0.5-0.75×10^6/ml) with (stimulated) or without (basal) PMA (phorbol myristate acetate, 100 ng/ml) was assayed in a phosphate buffer (pH 7.6) containing 5 mM glucose, 1 mM CaCl2, 1 mM MgCl2, and 75 μM cytochrome c±50 μg SOD. Superoxide generation was estimated as SOD-inhibitable reduction of cytochrome c using the extinction coefficient: E550=2.1×10^4M^−1cm^−1.
Hypomagnesemia alone in rodents can promote neutrophil free radical generating activity (Mak et al., Exp. & Clin. Cardiol. 2011, 16(4):121-124; Mak et al., Magnesium Res 2003, 16(2):91-97). In the present study, blood was sampled from rats treated with erlotinib (starting 10 mg/kg/day, oral) and/or Emend (aprepitant, starting 2 mg/kg/day, oral) at 9 weeks of exposure. Circulating neutrophil basal superoxide generating activity was determined as SOD-inhibitable reduction of cytochrome c (FIG. 3A). Plasma 8-isoprostane was assessed by a colorimetric ELISA kit (FIG. 3B). Values for erlotinib±Emend rats were compared to time-matched controls, and are means±SEM of 4-6 rats per group. ** p<0.01 versus control; ++p<0.01 versus erlotinib alone. […] Enhanced systemic oxidative stress, as represented by increased total plasma 8-isoprostane content (FIG. 3B), was prominent by 9 weeks (210% increase, p<0.01).

[5] = test system: nitro-tyrosine in cardiac tissue; experiment: Cardiac nitro-tyrosine immunohistochemical assessment; assay type: in vivo, Sprague-Dawley rats
Protocol: Cardiac tissue was rapidly excised, rinsed in saline, embedded in OCT compound, quickly frozen and kept at […] until used. Cryosections, 5 um thick, were stained by an indirect, immunohistochemical staining method (13) using rabbit anti-rat Nitrotyrosine antibody (5 ug/ml; Millipore, Billerica, Mass.) and the Vecta-Stain Elite ABC kit immunoperoxidase system (Vector Laboratories, Burlingame, Calif.). Samples were examined under an Olympus BX60 microscope, and multiple images were taken with a digital camera (Evolution Color MP; Media Cybernetics, Silver Spring, Md.). Briefly, fresh frozen sections were fixed in 10% formaldehyde, washed in PBS, incubated with 0.3% hydrogen peroxide in methanol for 30 min to block endogenous peroxidase, washed in PBS and incubated overnight at 4 C with rabbit anti nitrotyrosine antibody, which was applied on every slide except negative control. ABC kit reagents for horseradish peroxidase and 3-3′diaminebenzidine (DAB) were used to visualize the antigen-antibody reaction product as brown color. The sections were counterstained with hematoxylin, rinsed, dehydrated and cleared in series of ethanol and xylene and coverslipped.

[6] = Plasma substance P (SP) by ELISA; assay type: in vivo, Sprague-Dawley rats; details: Emend co-treatment with erlotinib
Protocol: Experiments on animals were conducted in accordance with the principles given in the US Department of Health and Human Services Guide for the Care and Use of Laboratory Animals and were approved by The George Washington University Institutional Animal Care and Use Committee. Male Sprague-Dawley rats (125-150 g) were purchased from Hilltop Lab Animals, Inc. (Scottdale, Pa.). After 1 week of quarantine, all age-matched rats were placed on an ad libitum Mg normal diet (25 mmole magnesium oxide/kg food regarded as 100% recommended daily allowance for rodents) obtained from Harlan-Teklad (Madison, Wis.) containing extracted casein as the diet base supplemented with essential vitamins and nutrients; or the same diet supplemented with erlotinib (OSI Pharmaceuticals, LLC, Northbrook, Ill. 60062, USA) to obtain a starting dose of 10 mg/kg/day, Emend® (as aprepitant, Merck & Co., INC. USA) to obtain a starting dose of 2 mg/kg/day, or both agents at these doses. Individually-housed rats were weighed and food consumption recorded daily to obtain actual drug dosage: time-range average erlotinib dose over 9 weeks was 7.07 mg/kg/day, and time-range average Emend dose over 9 weeks was 1.41 mg/kg/day. Rats had free access to distilled-deionized water, and were on a 12 h light/dark cycle for up to 9 weeks.
as §1

[7] = for improvement of AoPmax: NS
Protocol: Anesthetized rats were subjected to echocardiography periodically during the treatment regimens using a GE VingMed System Five Echocardiogram System (12, 13, 17, and 18). Heart rate and rectal temperature (35.9-37.5° C.) were monitored constantly during the imaging. Animals were placed on a warming platform with paws taped down to limit any motion during imaging, and a sterile eye lubricant was applied to prevent eye drying during the procedure. Hair over the thorax was removed first with an electric clipper, and then with a depilatory cream (<2 min exposure). Animals were imaged (10 MHz probe) for about 20 minutes at an image depth of 3 cm. This imaging system allows for both cardiac structure and function evaluation in rats. Systolic function, measured as % fractional shortening (% FS) using M-mode imaging, and left ventricular ejection fraction (LVEF), calculated from M-mode measurements, were assessed. Key anatomical parameters (IVSd & s=inter-ventricular septum diameter in diastole and systole; and LVPWd & s=LV posterior wall thickness in diastole or systole) were measured to assess the presence of dilated or hypertrophic cardiomyopathy. Measurements of the aortic and pulmonary artery diameters were used to calculate stroke volumes. Aortic pressure max (AoPmax) was assessed; and spectral Doppler velocities were measured for the pulmonic and aortic outflows to calculate cardiac output (CO), and for the mitral valve inflows to assess ventricular diastolic function (mitral valve E and A wave velocities and the E/A ratio were obtained). After echocardiography, animals were placed in room air until awake, and observed until fully recovered.
Rats treated with erlotinib (starting 10 mg/kg/day, oral) and/or Emend (aprepitant, starting 2 mg/kg/day, oral) received echocardiography at the indicated intervals (FIGS. 5A-5C).
Table 3 legend: Interventricular septum dimension in diastole (IVSd) and systole (IVSs); and LV posterior wall thickness in diastole (LVPWd) and systole (LVPWs). Rats treated with erlotinib (starting 10 mg/kg/day, oral) and/or Emend (aprepitant, starting 2 mg/kg/day, oral) received echocardiography at the indicated intervals. Values (% change) for erlotinib±Emend rats were compared to time-matched controls, and are means±SEM of 5-7 rats per group.

[8] = 9 weeks; Emend co-treatment with erlotinib
Protocol: as §1, with “In addition to the above plasma parameters, sacrifice plasma was also assayed for 8-isoprostane levels, and the whole blood samples were processed for neutrophil isolation and assessment of superoxide anion production.” left out
Hypomagnesemia alone in rodents can promote neutrophil free radical generating activity (Mak et al., Exp. & Clin. Cardiol. 2011, 16(4):121-124; Mak et al., Magnesium Res 2003, 16(2):91-97). […] Circulating neutrophil basal superoxide generating activity was determined as SOD-inhibitable reduction of cytochrome c (FIG. 3A). Plasma 8-isoprostane was assessed by a colorimetric ELISA kit (FIG. 3B). […]

[9] = 9 weeks, Emend co-treatment with erlotinib
[10] = 7 weeks, Emend co-treatment of erlotinib-exposed rats
[11] = 7 weeks, Emend co-treatment, p<0.05 vs erlotinib alone
[12] = 9 weeks, Emend co-treatment, p<0.02

For panitumumab, the “hypomagnesemia in treated patients” value [1] is given as “pronounced hypomagnesemia”.

For `C[C@@H](O[C@H]1OCCN(Cc2n[nH]c(=O)[nH]2)[C@H]1c1ccc(F)cc1)c1cc(C(F)(F)F)cc(C(F)(F)F)c1` [Emend, aprepitant], the “food consumption compared to controls” value [2] was “Neither ERL nor Emend affected food consumption”, the “attenuation of severity of hypomagnesemia due to erlotinib” value [3] was ~42% and the “effect on erlotinib-caused increase in basal superoxide generating activity” value [4, 9] was “completely prevented”. For the same molecule, the “effect on erlotinib-caused increase in stimulated superoxide generating activity” value [4, 9] was “completely prevented”, the “effect on neutrophil superoxide activity” value ([4]; rat, in vivo) was “no effects” and the “nitro-tyrosine formation in the ventricles” value ([5]; 9 wk, Emend co-treatment with erlotinib) was “visibly attenuated”. For the same molecule, the nitro-tyrosine formation ([5]; rat, in vivo) was “did not have any effect”, the “effect on erlotinib-induced increases in SP” value [6] was “almost completely blocked” and the “improvement of LV % FS compared to erlotinib alone” value ([7]; 7 weeks, Emend co-treatment) was 65.1%. The “improvement of LVPWs” value ([7]; 7 weeks, Emend co-treatment) was 53.4%, the “protection against erlotinib-induced decline in cardiac output” value ([7]; 7 weeks, Emend co-treatment) was 64.9% and the “improvement of IVSd” value [7, 10] was 48.2%. For the same molecule, the “improvement of LVEF compared to erlotinib alone” value [7, 10] was 71.3%, the “improvement of AoPmax” value ([7]; 7 weeks, Emend co-treatment) was 86% and the “improvement of IVSs” value [7, 11] was 76%. For the same molecule, the “improvement of LVPWd” value [7, 11] was 59.1%, the “improvement of IVSd” value ([7]; 9 weeks, Emend co-treatment) was 42.8% and the “improvement of IVSs” value ([7]; 9 weeks, Emend co-treatment) was 62%. For the same molecule, the “improvement of LVPWd” value ([7]; 9 weeks, Emend co-treatment) was 49.8%, the “improvement of LVPWs” value ([7]; 9 weeks, Emend co-treatment) was 58.2% and the “improvement of AoPmax” value ([7]; 9 weeks, Emend co-treatment) was 64%. For the same molecule, the “improvement of LV % FS compared to erlotinib alone” value [7, 12] was 86.4%, the “improvement of LVEF compared to erlotinib alone” value [7, 12] was 87.2% and the “protection against erlotinib-induced decline in cardiac output” value ([7]; 9 weeks, Emend co-treatment, p<0.02 vs ERL alone) was 75.4%. For the same molecule, the “improvement of mitral valve E/A ratio compared to erlotinib alone” value ([7]; 9 weeks, Emend co-treatment, p<0.05) was 84.6%, the “impact on LV systolic, diastolic, hemodynamic and anatomical parameters compared to time-paired controls” value ([7]; rat, in vivo) was “did not have any significant impact” and the “effect on elevation of total plasma isoprostane caused by erlotinib” value [8] was “completely blocked”.
